Experimental data reported in patent EP3421037A1, “RLS TREATMENT WITH INHIBITORS OF THE CEREBLON (CRBN) PROTEIN” (Klinikum rechts der Isar der Technischen Universität München, priority 2017, dated 2019).

Tested on: RLS patient
Assay: Treatment of one RLS patient with thalidomide; RLS severity and sleep disturbance observed weekly with four questionnaires
Type: in vivo, human
Conditions: for IRLSSG severity: 100 mg thalidomide daily plus two tablets pramipexole 0.18 mg, scale 0 to 40; for ESS sleepiness: Epworth Sleepiness Scale 0 to 24; for MOS sleep disturbance: range 0-100%; for RLS-6 score: scale 0 to 10
Description: The patient had been diagnosed with RLS but had suffered from the disease since childhood. They had family history of RLS with their parent and two siblings being affected.
The patient was washed off the concurrent medication, with the exception of two tablets of 0.18 mg pramipexole, which was maintained throughout the study.
After the baseline period, they were prescribed 100 mg of the inhibitor of the cereblon (CRBN) thalidomide (i.e. 2-(2,6-dioxopiperidin-3-yl)-2,3-dihydro-1H-isoindole-1,3-dione) daily, which they continued taking for three weeks in addition to their two tables pramipexol 0,18 mg treatment.
Throughout the six-week period, the RLS severity and sleep disturbance of the patient were weekly observed with four different questionnaires: • 1. IRLSSG severity scale: This is the gold standard questionnaire to evaluate RLS severity both in clinical practice and in pharmaceutical studies. The scale is based on 10 questions answered by the patient, and final severity score ranges from 0 to 40. On the IRLSSG scale, 0 points corresponds to no RLS, 1-10 points corresponds to mild RLS, 11-20 points corresponds to moderate RLS, 21-30 points corresponds to severe RLS and 31-40 points corresponds to very severe RLS. • 2. RLS-6 scale. This is an alternative scale used to evaluate different aspects of RLS. The average score may be used to evaluate the overall severity of RLS. The scale ranges from 0 to 10, with 0 indicating no RLS and 10 being the most severe RLS severity score. • 3. Epworth Sleepiness Scale (ESS). This is a gold standard questionnaire used to evaluate daytime sleepiness in clinical practice and in pharmaceutical studies. The scale ranges from 0 to 24, where 0-5 corresponds to normal daytime sleepiness, 6-10 corresponds to higher normal daytime sleepiness, 11-12 corresponds to mild excessive daytime sleepiness, 13-15 corresponds to moderate excessive daytime sleepiness and 16-24 corresponds to severe daytime sleepiness. • 4. MOS Sleep Scale. This is a questionnaire used to evaluate sleep disturbance, sleep efficiency, sleep adequacy and other related parameters with different subscores derived from the answers. In this study, the sleep disturbance score was used. The range is 0-100%, 100% indicating the most severe sleep disturbance.

[1] = week 4, 100 mg thalidomide daily plus pramipexole
[2] = week 5, 100 mg thalidomide daily plus pramipexole
[3] = week 6, 100 mg thalidomide daily plus pramipexole

O=C1CCC(N2C(=O)c3ccccc3C2=O)C(=O)N1 (stereo not shown) [Thalidomide, 2-(2,6-dioxopiperidin-3-yl)-2,3-dihydro-1H-isoindole-1,3-dione]
IRLSSG severity (week 4 (first treatment week)): 21 points
ESS sleepiness [1]: 4
MOS sleep disturbance [1]: 31.3%
RLS-6 score [1]: 4.7
IRLSSG severity (week 5 (second treatment week)): 20 points
ESS sleepiness [2]: 7
MOS sleep disturbance [2]: 46.3%
RLS-6 score [2]: 2.7
IRLSSG severity (week 6 (third treatment week)): 16 points
ESS sleepiness [3]: 3
MOS sleep disturbance [3]: 43.8%
RLS-6 score [3]: 2
treatment success of RLS on all four measured scores (weeks 4-6, 100 mg thalidomide daily plus pramipexole, compared with baseline weeks 1-3): significantly benefitted
